The source of these data is US20240238423A9, “TETRAHYDROISOQUINOLINE HETEROBIFUNCTIONAL BCL-XL DEGRADERS” (Treeline Biosciences, Inc., priority 2022, published 2024).

The target in this assay is T1, Human BCL-XL protein (N-terminal HiBiT tagged BCL-XL in HT1080 cells) (Homo sapiens, UniProt Q07817).
T1 construct: expressed in transfected cells; host or cells: HT-1080 (ATCC CCL-121), stably transduced with lentivirus pLV-UBC-N-HiBiT-BCL-XL-PGK-puro and selected with puromycin
The experiment in a line: HiBiT based degradation assay. The conditions noted are these: HT1080 cells expressing HiBiT-BCL-XL; for Ymin (6 h) / Ymin (24 h): BCL-XL degradation normalized with DMSO control; for DC50: BCL-XL degradation. Type of assay: cell-based. Put shortly:
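This HiBiT degradation assay measured loss of BCL-XL in HT1080 cells that stably express an N-terminal HiBiT-BCL-XL fusion delivered by lentivirus. Cells were added to compound-spotted 384-well plates, and luminescence was read on a PHERAstar FSX reader. Signal was expressed relative to DMSO controls, curves were fitted by four-parameter logistic regression, and for hook-shaped curves the Ymin point served as the bottom plateau when calculating EC50.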

Read-outs that look alike come from different tables or passages of the source.

T1 sequence (Q07817 whole entry): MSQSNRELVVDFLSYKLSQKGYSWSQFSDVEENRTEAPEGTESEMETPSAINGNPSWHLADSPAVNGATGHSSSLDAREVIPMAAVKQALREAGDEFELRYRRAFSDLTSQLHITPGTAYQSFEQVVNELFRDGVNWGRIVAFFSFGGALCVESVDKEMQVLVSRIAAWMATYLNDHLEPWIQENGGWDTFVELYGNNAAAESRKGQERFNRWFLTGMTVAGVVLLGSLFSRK

Turning to `Cc1cc(OCCCN2CCN(CC(=O)Nc3cccc4c(C5CCC(=O)NC5=O)nn(C)c34)CC2)ccc1-c1ccc(N2CCc3cccc(C(=O)Nc4nc5ccccc5s4)c3C2)nc1C(=O)O` (stereo not shown) [Compound 242, 6-[8-(1,3-benzothiazol-2-ylcarbamoyl)-3,4-dihydro-1H-isoquinolin-2-yl]-3-[4-[3-[4-[2-[[3-(2,6-dioxo-3-piperidyl)-1-methyl-indazol-7-yl]amino]-2-oxo-ethyl]piperazin-1-yl]propoxy]-2-methyl-phenyl]pyridine-2-carboxylic acid], the “Ymin (6 h)” value (6 h) was “C (Ymin ≥ 70%)”. Under “24 h”, the “Ymin (24 h)” value is “C (Ymin ≥ 70%)”. Besides, the DC50 is 1000 to 10000 nM (6 h, read-out: EC50 (6 h)) and less than 100 nM (24 h, read-out: EC50 (24 h)).
In the case of `Cc1c(Oc2ccccc2CCC(=O)Nc2cccc3c(C4CCC(=O)NC4=O)nn(C)c23)cccc1-c1ccc(N2CCc3cccc(C(=O)Nc4nc5ccccc5s4)c3C2)nc1C(=O)O` (stereo not shown) [Compound 243, 6-(8-(benzo[d]thiazol-2-ylcarbamoyl)-3,4-dihydroisoquinolin-2(1H)-yl)-3-(3-(2-(3-((3-(2,6-dioxopiperidin-3-yl)-1-methyl-1H-indazol-7-yl)amino)-3-oxopropyl)phenoxy)-2-methylphenyl)picolinic acid], where the note is “6 h”, the “Ymin (6 h)” value is “C (Ymin ≥ 70%)”. Besides, the “Ymin (24 h)” value (24 h) was “B (50% ≤ Ymin < 70%)”. Further, the DC50 reads like this: (6 h, read-out: EC50 (6 h)) 100 to 1000 nM; (24 h, read-out: EC50 (24 h)) less than 100 nM.
The corresponding values for `Cc1c(Oc2ccc(CCC(=O)N3CCN(c4ccc5c(C6CCC(=O)NC6=O)nn(C)c5c4)CC3)cc2)cccc1-c1ccc(N2CCc3cccc(C(=O)Nc4nc5ccccc5s4)c3C2)nc1C(=O)O` (stereo not shown) [Compound 244, 6-(8-(benzo[d]thiazol-2-ylcarbamoyl)-3,4-dihydroisoquinolin-2(1H)-yl)-3-(3-(4-(3-(4-(3-(2,6-dioxopiperidin-3-yl)-1-methyl-1H-indazol-6-yl)piperazin-1-yl)-3-oxopropyl)phenoxy)-2-methylphenyl)picolinic acid] are “C (Ymin ≥ 70%)”, “B (50% ≤ Ymin < 70%)”, 1000 to 10000 nM and less than 100 nM.
In the case of `Cc1c(OCCCN2CCN(CC(=O)Nc3ccc4c(C5CCC(=O)NC5=O)nn(C)c4c3)C[C@@H]2C(F)(F)F)cccc1-c1ccc(N2CCc3cccc(C(=O)Nc4nc5ccccc5s4)c3C2)nc1C(=O)O` (stereo partly drawn) [Compound 245a, 6-(8-(benzo[d]thiazol-2-ylcarbamoyl)-3,4-dihydroisoquinolin-2(1H)-yl)-3-(3-(3-((2R)-4-(2-((3-(2,6-dioxopiperidin-3-yl)-1-methyl-1H-indazol-6-yl)amino)-2-oxoethyl)-2-(trifluoromethyl)piperazin-1-yl)propoxy)-2-methylphenyl)picolinic acid], the “Ymin (24 h)” value (24 h) is “B (50% ≤ Ymin < 70%)”. In addition, the DC50 (24 h, read-out: EC50 (24 h)) was less than 100 nM.
Regarding `Cc1c(OCCCN2CCN(CC(=O)Nc3ccc4c(C5CCC(=O)NC5=O)nn(C)c4c3)C[C@H]2C(F)(F)F)cccc1-c1ccc(N2CCc3cccc(C(=O)Nc4nc5ccccc5s4)c3C2)nc1C(=O)O` (stereo partly drawn) [Compound 245b, 6-(8-(benzo[d]thiazol-2-ylcarbamoyl)-3,4-dihydroisoquinolin-2(1H)-yl)-3-(3-(3-((2S)-4-(2-((3-(2,6-dioxopiperidin-3-yl)-1-methyl-1H-indazol-6-yl)amino)-2-oxoethyl)-2-(trifluoromethyl)piperazin-1-yl)propoxy)-2-methylphenyl)picolinic acid], the “Ymin (24 h)” value (24 h) is “B (50% ≤ Ymin < 70%)”. Under “24 h, read-out: EC50 (24 h)”, the DC50 is less than 100 nM.
The corresponding values for `Cc1c(OCCCN2CCN(CC(=O)Nc3cccc4c(C5CCC(=O)NC5=O)nn(C)c34)C[C@@H]2C(F)(F)F)cccc1-c1ccc(N2CCc3cccc(C(=O)Nc4nc5ccccc5s4)c3C2)nc1C(=O)O` (stereo partly drawn) [Compound 246a, 6-(8-(benzo[d]thiazol-2-ylcarbamoyl)-3,4-dihydroisoquinolin-2(1H)-yl)-3-(3-(3-((2R)-4-(2-((3-(2,6-dioxopiperidin-3-yl)-1-methyl-1H-indazol-7-yl)amino)-2-oxoethyl)-2-(trifluoromethyl)piperazin-1-yl)propoxy)-2-methylphenyl)picolinic acid] are “B (50% ≤ Ymin < 70%)” and less than 100 nM.
Regarding `Cc1c(OCCCN2CCN(CC(=O)Nc3cccc4c(C5CCC(=O)NC5=O)nn(C)c34)C[C@H]2C(F)(F)F)cccc1-c1ccc(N2CCc3cccc(C(=O)Nc4nc5ccccc5s4)c3C2)nc1C(=O)O` (stereo partly drawn) [Compound 246b, 6-(8-(benzo[d]thiazol-2-ylcarbamoyl)-3,4-dihydroisoquinolin-2(1H)-yl)-3-(3-(3-((2S)-4-(2-((3-(2,6-dioxopiperidin-3-yl)-1-methyl-1H-indazol-7-yl)amino)-2-oxoethyl)-2-(trifluoromethyl)piperazin-1-yl)propoxy)-2-methylphenyl)picolinic acid], the “Ymin (24 h)” value (24 h) is listed as “B (50% ≤ Ymin < 70%)”. Where the note is “24 h, read-out: EC50 (24 h)”, the DC50 is less than 100 nM.
The corresponding values for `Cc1c(OCCCC2CCN(CC3CCN(c4ccc5c(C6CCC(=O)NC6=O)nn(C)c5c4)CC3)CC2)cccc1-c1ccc(N2CCc3cccc(C(=O)Nc4nc5ccccc5s4)c3C2)nc1C(=O)O` (stereo not shown) [Compound 247, 6-[8-(1,3-benzothiazol-2-ylcarbamoyl)-3,4-dihydro-1H-isoquinolin-2-yl]-3-[3-[3-[1-[[1-[3-(2,6-dioxo-3-piperidyl)-1-methyl-indazol-6-yl]-4-piperidyl]methyl]-4-piperidyl]propoxy]-2-methyl-phenyl]pyridine-2-carboxylic acid] are “A (Ymin < 50%)” and less than 100 nM.
As for `Cc1c(OCCC2CCN(CCN3CCC(c4ccc5c(C6CCC(=O)NC6=O)nn(C)c5c4)CC3)CC2)cccc1-c1ccc(N2CCc3cccc(C(=O)Nc4nc5ccccc5s4)c3C2)nc1C(=O)O` (stereo not shown) [Compound 248, 6-[8-(1,3-benzothiazol-2-ylcarbamoyl)-3,4-dihydro-1H-isoquinolin-2-yl]-3-[3-[2-[1-[2-[4-[3-(2,6-dioxo-3-piperidyl)-1-methyl-indazol-6-yl]-1-piperidyl]ethyl]-4-piperidyl]ethoxy]-2-methyl-phenyl]pyridine-2-carboxylic acid], the “Ymin (24 h)” value (24 h) is recorded as “A (Ymin < 50%)”. In addition, the DC50 (24 h, read-out: EC50 (24 h)) was less than 100 nM.
The corresponding values for `Cc1c(OCCC2CCN(CCN3CCC(c4cccc5c(C6CCC(=O)NC6=O)nn(C)c45)CC3)CC2)cccc1-c1ccc(N2CCc3cccc(C(=O)Nc4nc5ccccc5s4)c3C2)nc1C(=O)O` (stereo not shown) [Compound 249, 6-[8-(1,3-benzothiazol-2-ylcarbamoyl)-3,4-dihydro-1H-isoquinolin-2-yl]-3-[3-[2-[1-[2-[4-[3-(2,6-dioxo-3-piperidyl)-1-methyl-indazol-7-yl]-1-piperidyl]ethyl]-4-piperidyl]ethoxy]-2-methyl-phenyl] pyridine-2-carboxylic acid] are “A (Ymin < 50%)” and less than 100 nM.
The corresponding values for `Cc1cc(O[C@H]2CC[C@H](CCCN3CCN(c4cccc5c(C6CCC(=O)NC6=O)nn(C)c45)CC3)CC2)ccc1-c1ccc(N2CCc3cccc(C(=O)Nc4nc5ccccc5s4)c3C2)nc1C(=O)O` (stereo partly shown) [Compound 250a, 6-(8-(benzo[d]thiazol-2-ylcarbamoyl)-3,4-dihydroisoquinolin-2(1H)-yl)-3-(4-(((1s,4r)-4-(3-(4-(3-(2,6-dioxopiperidin-3-yl)-1-methyl-1H-indazol-7-yl)piperazin-1-yl)propyl)cyclohexyl)oxy)-2-methylphenyl)picolinic acid] are “A (Ymin < 50%)” and less than 100 nM.
